Reference: ChEMBL document CHEMBL1201862, “PubChem BioAssay data set” (2004)
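Tested at 5 concentrations; 48 h exposure; 96-well plates; endpoints linearly interpolated, else capped at highest concentration. Here, GI50 denotes the concentration required for 50% inhibition of growth.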 Active and inactive are the calls of the source. No stated cut-off is given here; in the data, active = GI50 up to about 1.1 µM and inactive = higher.

Legend:
Assay in all cases: NCI tumour cell line growth inhibition, 48 h
HCT-15 = system: HCT-15
SNB-75 = system: SNB-75
SR = system: SR
HOP-92 = system: HOP-92
IGROV-1 = system: IGROV-1
786-0 = system: 786-0
NCI-H460 = system: NCI-H460
UO-31 = system: UO-31
K562 = system: K562
EKVX = system: EKVX
HL-60 = system: HL-60
SN12C = system: SN12C
HOP-62 = system: HOP-62
SK-MEL-2 = system: SK-MEL-2
OVCAR-3 = system: OVCAR-3
COLO 205 = system: COLO 205
MDA-MB-435 = system: MDA-MB-435
MDA-MB-231 = system: MDA-MB-231

Structure (SMILES)	GI50 (HCT-15) [µM]	GI50 (SNB-75)	GI50 (SR)	GI50 (HOP-92)	GI50 (IGROV-1)	GI50 (786-0)	GI50 (NCI-H460)	GI50 (UO-31)	GI50 (K562)	GI50 (EKVX)	GI50 (HL-60)	GI50 (SN12C)	GI50 (HOP-62)	GI50 (SK-MEL-2)	GI50 (OVCAR-3)	GI50 (COLO 205)	GI50 (MDA-MB-435)	GI50 (MDA-MB-231)
CCCCCCCCCCNC(=S)OC	24.4	27.4 µM (inactive)	13.7 µM (inactive)	13.4 µM (inactive)	25.7 µM (inactive)	49.3 µM (inactive)	> 100 µM (inactive)	15.8 µM (inactive)	29.2 µM (inactive)	80 µM (inactive)	16.7 µM (inactive)	26.7 µM (inactive)	> 100 µM (inactive)					
Cc1ccc(C)c(N2C(=O)C(=O)C(c3nc4ccccc4o3)/C(=N\NC(=O)c3ccccc3O)C2=O)c1 (configuration not stated)	18	5.7 µM (inactive)	30.1 µM (inactive)	41.7 µM (inactive)	6.52 µM (inactive)	27.4 µM (inactive)		16.3 µM (inactive)	16.4 µM (inactive)	22.8 µM (inactive)	< 0.01 µM (active)	26.2 µM (inactive)	24.9 µM (inactive)	29.6 µM (inactive)	16.6 µM (inactive)	24.2 µM (inactive)		
Clc1ccc(C[P+](c2ccccc2)(c2ccccc2)c2ccccc2)cc1Cl	17	1.77 µM (inactive)	2.61 µM (inactive)	1.62 µM (inactive)	2.51 µM (inactive)	4.85 µM (inactive)	2.34 µM (inactive)		4.31 µM (inactive)		1.03 µM (active)	4.04 µM (inactive)	9.08 µM (inactive)	2.15 µM (inactive)	2.06 µM (inactive)	1.55 µM (inactive)		
CCN(CC)CCCNC(=O)C1COc2cc(-c3cc(=O)c4ccccc4o3)ccc2O1 (configuration not stated)	53	45.9 µM (inactive)	19.9 µM (inactive)	> 100 µM (inactive)	68.1 µM (inactive)	66.8 µM (inactive)	> 100 µM (inactive)	27.4 µM (inactive)	36.6 µM (inactive)	> 100 µM (inactive)	36.9 µM (inactive)	45.6 µM (inactive)	> 100 µM (inactive)		93.5 µM (inactive)	25.1 µM (inactive)		
CN(O)C(=O)c1ccccc1		> 100 µM (inactive)	> 100 µM (inactive)	> 100 µM (inactive)	> 100 µM (inactive)	> 100 µM (inactive)	> 100 µM (inactive)	> 100 µM (inactive)	> 100 µM (inactive)		> 100 µM (inactive)	> 100 µM (inactive)	> 100 µM (inactive)		> 100 µM (inactive)	> 100 µM (inactive)		
O=C(O)Cc1cc(=O)[nH]c2c1/C(=N/O)CCC2	> 100		> 100 µM (inactive)	> 100 µM (inactive)	> 100 µM (inactive)	> 100 µM (inactive)	> 100 µM (inactive)	> 100 µM (inactive)	> 100 µM (inactive)	> 100 µM (inactive)	> 100 µM (inactive)	> 100 µM (inactive)		> 100 µM (inactive)	> 100 µM (inactive)			
CCOC(=O)Oc1c(OC)cc(C(=O)NC2CCc3cc(OC)c(OC)c(OC)c3-c3ccc(SC)c(=O)cc32)cc1OC (configuration not stated)	0.445	0.071 µM (active)	< 0.007 µM (active)	0.0728 µM (active)	0.0506 µM (active)	0.239 µM (active)	0.164 µM (active)	1.5 µM (inactive)	< 0.007 µM (active)	0.16 µM (active)	< 0.007 µM (active)	0.0542 µM (active)	0.601 µM (active)	0.0466 µM (active)	0.0322 µM (active)	0.0439 µM (active)		
CC1=CCC2CC1NC(=O)CCOCCC(=O)NC2(C)C (configuration not stated)	> 100		> 100 µM (inactive)	> 100 µM (inactive)		> 100 µM (inactive)	> 100 µM (inactive)	> 100 µM (inactive)	> 100 µM (inactive)			> 100 µM (inactive)		> 100 µM (inactive)		> 100 µM (inactive)	> 100 µM (inactive)	> 100 µM (inactive)
C=C1C2Oc3ccccc3C1N(c1ccccc1)O2 (configuration not stated)	20.8	43.8 µM (inactive)	30.5 µM (inactive)		34.4 µM (inactive)	41.5 µM (inactive)	20.8 µM (inactive)	47.9 µM (inactive)	27.4 µM (inactive)	42.9 µM (inactive)	30.3 µM (inactive)	23.7 µM (inactive)	66.7 µM (inactive)	9.14 µM (inactive)	32.3 µM (inactive)	48.5 µM (inactive)		
CCCCc1c2c(nc3c1CCCC3=O)C(=O)CCC2	> 100	62.4 µM (inactive)	> 100 µM (inactive)	> 100 µM (inactive)	> 100 µM (inactive)	> 100 µM (inactive)	> 100 µM (inactive)	> 100 µM (inactive)	> 100 µM (inactive)	> 100 µM (inactive)	> 100 µM (inactive)	> 100 µM (inactive)	> 100 µM (inactive)	> 100 µM (inactive)	> 100 µM (inactive)	> 100 µM (inactive)		
Cc1ccc([N+](=O)[O-])cc1NC(=O)C(=O)Cc1occc(=O)c1O	> 100	> 100 µM (inactive)	> 100 µM (inactive)	> 100 µM (inactive)	> 100 µM (inactive)	> 100 µM (inactive)	> 100 µM (inactive)	> 100 µM (inactive)	> 100 µM (inactive)	> 100 µM (inactive)	> 100 µM (inactive)	> 100 µM (inactive)	> 100 µM (inactive)		> 100 µM (inactive)	> 100 µM (inactive)		
CCOC(=O)c1sc(Nc2cc(Cl)ccc2Cl)nc1C	67.8	15.6 µM (inactive)	52.5 µM (inactive)	22.6 µM (inactive)	73.1 µM (inactive)	> 100 µM (inactive)	> 100 µM (inactive)	> 100 µM (inactive)	42.9 µM (inactive)	> 100 µM (inactive)	> 100 µM (inactive)	61.9 µM (inactive)	> 100 µM (inactive)	95.1 µM (inactive)	84.1 µM (inactive)	> 100 µM (inactive)		
COc1ccc(-c2onc(-c3ccc([N+](=O)[O-])cc3)c2C2=NCCCN2)cc1	> 100	> 100 µM (inactive)	45.4 µM (inactive)		> 100 µM (inactive)	> 100 µM (inactive)	51.8 µM (inactive)	18.4 µM (inactive)	70.3 µM (inactive)	> 100 µM (inactive)	36.9 µM (inactive)	> 100 µM (inactive)	> 100 µM (inactive)	> 100 µM (inactive)	26.5 µM (inactive)	43.6 µM (inactive)		
O=C(O)/C(Cl)=C(\Cl)C(=O)c1ccccc1	> 100	> 100 µM (inactive)	> 100 µM (inactive)	> 100 µM (inactive)	> 100 µM (inactive)	> 100 µM (inactive)	> 100 µM (inactive)	> 100 µM (inactive)	> 100 µM (inactive)	> 100 µM (inactive)	> 100 µM (inactive)	> 100 µM (inactive)	> 100 µM (inactive)	> 100 µM (inactive)	> 100 µM (inactive)	> 100 µM (inactive)		
CCOC(=O)C1CSCCSC1	> 100	43 µM (inactive)	> 100 µM (inactive)	> 100 µM (inactive)			17.5 µM (inactive)	> 100 µM (inactive)	> 100 µM (inactive)			> 100 µM (inactive)				> 100 µM (inactive)	> 100 µM (inactive)	> 100 µM (inactive)
CC(C)c1cccc2sc(NC(=O)C(=O)CC(=O)c3ccc(F)cc3)nc12	> 100	59.7 µM (inactive)		> 100 µM (inactive)	> 100 µM (inactive)	> 100 µM (inactive)	> 100 µM (inactive)	> 100 µM (inactive)	> 100 µM (inactive)	> 100 µM (inactive)	> 100 µM (inactive)	> 100 µM (inactive)	> 100 µM (inactive)	> 100 µM (inactive)	> 100 µM (inactive)	> 100 µM (inactive)		
CC1=C(C(=O)NCc2ccccc2)C(c2ccc(C3C(C(=O)NCc4ccccc4)=C(C)NC(C)=C3C(=O)NCc3ccccc3)cc2)C(C(=O)NCc2ccccc2)=C(C)N1	16.1	> 10 µM (inactive)	2.3 µM (inactive)	17.8 µM (inactive)	18 µM (inactive)	15.6 µM (inactive)	28.6 µM (inactive)	21.2 µM (inactive)	5.93 µM (inactive)	14.9 µM (inactive)	6.27 µM (inactive)	6.5 µM (inactive)	23.2 µM (inactive)	18.4 µM (inactive)	10.4 µM (inactive)	7.57 µM (inactive)		
Cc1cc2nc3c(=O)n(C)c(=O)nc-3n(-c3ccc(Cl)cc3)c2cc1C	3.68	11.4 µM (inactive)		13.9 µM (inactive)	14.6 µM (inactive)	16.1 µM (inactive)	3.3 µM (inactive)	20 µM (inactive)	12.8 µM (inactive)	20.1 µM (inactive)	3.34 µM (inactive)	5.85 µM (inactive)	24.4 µM (inactive)	11.8 µM (inactive)	2.57 µM (inactive)	2.24 µM (inactive)		
CC(Oc1ccc(OCC2CCCCC2)cc1)C(=O)N(CCO)CCO (configuration not stated)	> 100	92.9 µM (inactive)			> 100 µM (inactive)	> 100 µM (inactive)	> 100 µM (inactive)	> 100 µM (inactive)	> 100 µM (inactive)		> 100 µM (inactive)	> 100 µM (inactive)		> 100 µM (inactive)	> 100 µM (inactive)			
